Experimental data reported in patent publication US20040191833A1, “Selective activation of cellular activities mediated through a common toll-like receptor” (3M Innovative Properties Company, priority 2003, published 2004).

Tests used:
human TLR7 [1] = molecular target: T1, human TLR7 (Homo sapiens, UniProt Q9NYK1); experiment: TLR7 activation in HEK293 cells (NF-kB-luc luciferase reporter, H-TLR7/H-vector); format: cell-based; conditions: final IRM concentration 10 μM, 16 hours, normalized to the DMSO without compound control
T1 construct: expressed in transfected cells; host or cells: Namalwa cells (ATCC CRL-1432), pCI-neo vector, electroporated, G418 selected, with pIFN-α1-luc reporter
T1 sequence (Q9NYK1 27-1049): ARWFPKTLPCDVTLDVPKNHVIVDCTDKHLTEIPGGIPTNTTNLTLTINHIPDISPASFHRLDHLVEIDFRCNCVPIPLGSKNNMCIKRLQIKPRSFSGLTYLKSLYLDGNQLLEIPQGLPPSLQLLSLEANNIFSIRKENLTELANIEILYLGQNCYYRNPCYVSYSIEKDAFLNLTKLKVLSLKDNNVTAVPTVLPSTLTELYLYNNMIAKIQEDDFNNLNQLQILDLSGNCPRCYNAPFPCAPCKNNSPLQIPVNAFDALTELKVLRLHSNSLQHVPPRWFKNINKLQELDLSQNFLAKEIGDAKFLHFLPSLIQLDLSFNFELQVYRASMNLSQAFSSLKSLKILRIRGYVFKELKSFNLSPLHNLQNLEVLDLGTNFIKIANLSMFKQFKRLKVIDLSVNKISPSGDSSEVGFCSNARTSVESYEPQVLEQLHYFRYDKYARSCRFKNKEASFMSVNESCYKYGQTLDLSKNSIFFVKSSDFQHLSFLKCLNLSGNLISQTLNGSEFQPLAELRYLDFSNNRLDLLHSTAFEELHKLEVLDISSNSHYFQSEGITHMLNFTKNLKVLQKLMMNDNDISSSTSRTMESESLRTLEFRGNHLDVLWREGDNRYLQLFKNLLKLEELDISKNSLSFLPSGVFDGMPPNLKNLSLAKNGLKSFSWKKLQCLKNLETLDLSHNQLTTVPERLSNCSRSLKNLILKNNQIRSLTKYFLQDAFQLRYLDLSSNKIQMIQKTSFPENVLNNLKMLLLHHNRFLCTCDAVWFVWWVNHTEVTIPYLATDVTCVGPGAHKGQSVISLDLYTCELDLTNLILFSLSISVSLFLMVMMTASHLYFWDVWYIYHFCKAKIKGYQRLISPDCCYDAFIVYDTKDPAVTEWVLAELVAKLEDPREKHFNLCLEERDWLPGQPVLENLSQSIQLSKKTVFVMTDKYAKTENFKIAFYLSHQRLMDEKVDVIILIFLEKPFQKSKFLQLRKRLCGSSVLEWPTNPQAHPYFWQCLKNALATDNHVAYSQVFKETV
Procedure: (§1) In one embodiment, exemplified in Example 1, selective modulation of TLR7-mediated NF-κB activation and TLR7-mediated IFN-α1 induction were assayed. NF-κB activation was measured in genetically modified HEK293 cells (H-TLR7) by detecting TLR7-mediated NF-κB-dependent transcription of a luciferase reporter. IFN-α1 induction was measured in genetically modified Namalwa cells (N-TLR7) by detecting TLR-mediated IFN-α1-induced transcription of a luciferase reporter. Results are shown in Table 2 and are expressed as the fold increase in TLR7-mediated luciferase signal—(H-TLR7/H-vector) and (N-TLR7/N-vector), respectively—normalized to a control in which the cells were treated with vehicle that contained no IRM compound. In this assay, a compound was considered to induce the TLR7-mediated cellular activity if the compound generated at least a two-fold increase in the luciferase signal compared to the vector control.
HEK293 medium was prepared from 90% Minimum Essential Medium (MEM) with 2 mM L-glutamine and Earle's Balanced Salt Solution (Invitrogen Corp., Rockville, Md.) adjusted to contain 1.5 g/L sodium bicarbonate, 0.1 mM non-essential amino acids, and 1.0 mM sodium pyruvate; 10% heat-inactivated fetal calf serum. HEK293 cells were cultured by incubating cells in HEK293 medium overnight at 37° C, 8% CO2.
Twenty-four hours before transfection, HEK293 cells were adhered to a 10 cm dish (Corning 430167, Corning Inc., Corning, N.Y.) at 37° C., 8% CO2. The cells were co-transfected with (1) pIRES (BD Biosciences Clontech, Palo Alto, Calif.) either (a) unmodified (H-vector), or (b) containing an expressible human TLR7 gene (H-TLR7), and (2) NF-kB-luc reporter (Stratagene, La Jolla, Calif.) in a 10:1 ratio with Fugene 6 transfection reagent (Roche Diagnostics Corp., Indianapolis, Ind.) following the manufacturer's instructions. The plates were incubated for 24 hours following transfection and then selected in G-418 (400 μg/mL) for two weeks. The G-418-resistant cells containing either the expressible TLR7 gene or the empty vector were expanded in HEK293 medium supplemented with G-418 for stimulation experiments.
The transfected cells were plated in white opaque 96 well plates (Costar 3917, Corning Inc., Corning, N.Y.) at a concentration of 5×10^4 cells per well in 100 μL of HEK293 media and incubated at 37° C., 8% CO2 for 4 hours. The cells were stimulated with 1 μL of IRM compounds at 1 mM in DMSO (final IRM concentration of 10 μM) or 1 μL DMSO as a control. The plates were then incubated an additional 16 hours at 37° C., 5% CO2. The luciferase signal was read using the LucLite kit (Packard Instrument Co., Meriden, Conn.). Luminescence was measured on an LMAX luminometer (Molecular Devices Corp., Sunnyvale, Calif.).
(§2) The data are expressed as fold increase in TLR7-mediated luciferase signal—(H-TLR7/H-vector) and (N-TLR7/N-vector), respectively—normalized to the DMSO without compound control.

human TLR7 [2] = molecular target: T1, human TLR7; experiment: TLR7 activation in Namalwa cells (IFN-α1 promoter luciferase reporter, N-TLR7/N-vector); format: cell-based; conditions: final IRM concentration 10 μM, 18 hours, normalized to the DMSO without compound control
Procedure: as §1
Unless otherwise indicated, all incubations were performed at 37° C. with 5% CO2 at 98% humidity.
Culture medium was prepared from complete RPMI 1640 medium (BioSource International, Inc., Camarillo, Calif.). Fetal bovine serum (Atlas Biologicals, Inc., Ft. Collins, Colo.) was added to a final concentration of 7.5% (vol/vol); L-glutamine (BioSource International, Inc.) was added to 5 mM; and sodium pyruvate (BioSource International, Inc.) was added to 1 mM.
Namalwa cells were grown by incubation in culture medium overnight. Cells were harvested by centrifugation in a tabletop centrifuge (1200 RPM for 5 minutes), and then resuspended in phosphate buffered sucrose to a concentration of 1.3×10^7 cells/mL.
For each transfection, a 750 μL aliquot of the cell suspension was placed in an electroporation cuvette with 4 mm gaps. Each aliquot received transfection DNA: 10 μg of pGL3-Enhancing vector (Promega Corp., Madison, Wis.) containing the human IFN-α1 promoter cloned into the BglII site (pIFN-α1-luc), and 10 μg of pCI-neo mammalian expression vector (Promega Corp.) either (1) unmodified (N-vector) or (2) containing an expressible human TLR7 gene (N-TLR7). The cell and vector mixtures were incubated at room temperature for 5 minutes. The cells were electroporated using a BioRad Gene Pulser (BioRad Laboratories, Hercules, Calif.) set to at 500 μF capacitance and […], then incubated at room temperature for 5 minutes.
The electroporated cells were suspended in 10 mL of culture medium and incubated overnight. Dead cells and debris were removed after 24 hours using a MACS Dead Cell Removal kit (Miltenyi Biotec, Auburn, Calif.). Cells were resuspended in 10 mL of culture medium and incubated for an additional 24 hours.
Transfected cells were selected by adding G418 (Promega Corp., Madison, Wisc.) to a final concentration of 1 mg/mL and incubating the cells for seven days.
The selected transfected cells were counted and resuspended to a concentration of 1×10^6 cell per mL in culture medium. 100 μl aliquots of cells were placed in the wells of a white-walled, white-bottomed 96-well plate (Corning, Inc. Corning, N.Y.). 1.0 μL of an IRM compound from Table 1 (prepared at 1 mM in 100% DMSO) was added to some cell aliquots so that the final concentration of IRM compound was 10 μM. As a positive control, some cell aliquots were incubated with Sendai virus instead of IRM compound. As a negative control, some cell aliquots were incubated with DMSO without IRM compound. In all cases, the cells were incubated for 18 hours.
The plates were equilibrated to room temperature before 1 volume of reconstituted LucLight Plus (Packard Instruments, Meriden, Conn.) was added to each aliquot of cells. Each well of the plate was read on an LJL Analyst (LJL Biosystems, Inc., Sunnyvale, Calif.) set with a 5 minute dark adapt.
as §2

SMILES | H-TLR7: fold increase in TLR7-mediated luciferase signal (H-TLR7/H-vector), NF-κB-dependent reporter (human TLR7 [1]) | N-TLR7: fold increase in TLR7-mediated luciferase signal (N-TLR7/N-vector), IFN-α1 promoter reporter (human TLR7 [2])
CCOCc1nc2c(N)nc3ccccc3c2n1CCCCNC(=O)N1CCOCC1 [IRM18] | 0.5 fold | 3.3 fold
CC(C)Cn1c(CO)nc2c(N)nc3c(c21)CCCC3 [IRM8, 2-hydroxymethyl-1-(2-methylpropyl)-6,7,8,9-tetrahydro-1H-imidazo[4,5-c]quinolin-4-amine] | 0.4 fold | 3.0 fold
CCOCc1nc2c(N)nc3ccccc3c2n1CCC(C)C [IRM9, 2-ethoxymethyl-1-(3-methylbutyl)-1H-imidazo[4,5-c]quinolin-4-amine] | 0.7 fold | 2.6 fold
CCc1nc2c(N)nc3ccccc3c2n1CCOCCNC(=O)Nc1ccccc1 [IRM20, N-{2-[2-(4-amino-2-ethyl-1H-imidazo[4,5-c]quinolin-1-yl)ethoxy]ethyl}-N′-phenylurea] | 0.8 fold | 3.7 fold
COCCc1nc2c(N)nc3ccccc3c2n1CCCCCCCCNC(=O)Nc1ccccc1 [IRM2, N-{8-[4-amino-2-(2-methoxyethyl)-1H-imidazo[4,5-c]quinolin-1-yl]octyl}-N′-phenylurea] | 4.1 fold | 1.5 fold
CCC(C)NC(=S)NCCn1c(CCOC)nc2c(N)nc3ccccc3c21 (centres unmarked) [IRM24, N-{2-[4-amino-2-(2-methoxyethyl)-1H-imidazo[4,5-c]quinolin-1-yl]ethyl}-N′-sec-butylthiourea] | 7.9 fold | 3.2 fold
CCCCSCCCCn1c(CC)nc2c(N)nc3ccccc3c21 [IRM6, 1-[4-(butylthio)butyl]-2-ethyl-1H-imidazo[4,5-c]quinolin-4-amine] | 7.1 fold | 1.4 fold
Cc1nc2c(N)nc3ccccc3c2n1CCCNC(=O)C1CCCC1 [IRM16, N-[3-(4-amino-2-methyl-1H-imidazo[4,5-c]quinolin-1-yl)propyl]cyclopentanecarboxamide] | 0.9 fold | 2.8 fold
CCCCCc1nc2c(N)nc3ccccc3c2n1CCCCNS(C)(=O)=O [IRM14, N-[4-(4-amino-2-pentyl-1H-imidazo[4,5-c]quinolin-1-yl)butyl]methanesulfonamide] | 0.9 fold | 3.3 fold
Nc1nc2ccccc2c2c1ncn2CCOCC#Cc1csc(C=O)c1 [IRM1, 4-{3-[2-(4-amino-1H-imidazo[4,5-c]quinolin-1-yl)ethoxy]-1-propynyl}-2-thiophenecarboxaldehyde] | 13.2 fold | 1.6 fold
Cc1nc2c(N)nc3ccccc3c2n1CCOCCNC(=O)c1ccccc1 [IRM17, N-{2-[2-(4-amino-2-methyl-1H-imidazo[4,5-c]quinolin-1-yl)ethoxy]ethyl}benzamide] | 0.4 fold | 3.1 fold
COCCc1nc2c(N)nc3ccccc3c2n1CC(C)(C)CNC(=O)Nc1ccccc1 [IRM4, N-{3-[4-amino-2-(2-methoxyethyl)-1H-imidazo[4,5-c]quinolin-1-yl]-2,2-dimethylpropyl}-N′-phenylurea] | 15.0 fold | 1.6 fold
COCCOCc1nc2c(N)nc3ccccc3c2n1CCOc1ccccc1 [IRM15, 2-[(2-methoxyethoxy)methyl]-1-(2-phenoxyethyl)-1H-imidazo[4,5-c]quinolin-4-amine] | 0.8 fold | 2.7 fold
